Measurements: EPA's CvTdb concentration-time database (doi:10.1093/toxsci/kfy020)

Columns and labels:
rat [1] = test: concentration in plasma after dosing; conditions: male
rat [2] = test: concentration in brain after dosing; conditions: dosed: Imipramine, 10.0000000000 mg/kg, iv, male, Wistar
rat [3] = test: concentration in plasma after dosing; conditions: dosed: Pentadecafluorooctanoic acid, 0.2000000000 mg/kg, iv, male, Sprague-Dawley
rat [4] = test: concentration in plasma after dosing; conditions: dosed: Pentadecafluorooctanoic acid, 1.0000000000 mg/kg, oral, male, Sprague-Dawley
rat [5] = test: concentration in plasma after dosing; conditions: dosed: Pentadecafluorooctanoic acid, 0.2000000000 mg/kg, iv, male, Sprague-Dawley; remark: listed apart in the source
rat [6] = test: concentration in plasma after dosing; conditions: dosed: Pentadecafluorooctanoic acid, 1.0000000000 mg/kg, oral, male, Sprague-Dawley; remark: listed apart in the source
rat [7] = test: concentration in plasma after dosing; conditions: dosed: Pentadecafluorooctanoic acid, 0.2000000000 mg/kg, iv, male, Sprague-Dawley; remark: listed apart in the source
rat [8] = test: concentration in plasma after dosing; conditions: dosed: Pentadecafluorooctanoic acid, 1.0000000000 mg/kg, oral, male, Sprague-Dawley; remark: listed apart in the source

CNC(=O)Oc1cccc(N=CN(C)C)c1.Cl [Formetanate hydrochloride]
concentration in plasma [µg/mL], rat [1], dosed: Formetanate hydrochloride, Sprague-Dawley
Conditions | 0.25 h | 1 h | 2 h | 24 h | 48 h | 72 h
1.0000000000 mg/kg, iv | – | – | – | 0.0079 | 0.0022 | –
5.0000000000 mg/kg, oral | 0.262 | 0.0532 | 0.00957 | 0.00164 | 0.0124 | 0.00513

COc1ccccc1Oc1c(NS(=O)(=O)c2ccc(C(C)(C)C)cc2)nc(-c2ncccn2)nc1OCCO [Bosentan]
concentration in plasma [µg/mL], rat [1], dosed: Bosentan, Wistar
Conditions | 0.5 h | 1 h | 2 h | 2 min | 3 h | 4 h | 6 h | 8 h | 10 min | 20 min
1.0000000000 mg/kg, iv | 0.168 | 0.128 | 0.0789 | 1.95 | 0.0613 | 0.0383 | 0.0183 | 0.0105 | 0.323 | 0.212
10.0000000000 mg/kg, oral | – | 0.622 | 0.608 | – | – | 0.36 | 0.157 | 0.06 | – | –

COCCc1ccc(OC[C@@H](O)CNC(C)C)cc1 [S-Metoprolol]
rat [1], dosed: Metoprolol, 15.0000000000 mg/kg, oral, Wistar
Conditions | concentration in plasma [µg/mL]
0.1 h | 0.0932
0.5 h | 0.053
1 h | 0.0139
1.5 h | 0.00815
2 h | 0.00661
2 min | 0.219
2.5 h | 0.00214
3 h | 0.00145
4 min | 0.425
8 min | 0.0793
10 min | 0.0686
20 min | 0.0547
40 min | 0.0384
50 min | 0.0244

COc1ccc([C@@H]2Sc3ccccc3N(CCN(C)C)C(=O)[C@@H]2OC(C)=O)cc1 [Diltiazem]
concentration in plasma [µg/mL], rat [1], dosed: Diltiazem, 20.0000000000 mg/kg, Sprague-Dawley
Conditions | 0.16 h | 0.25 h | 1 h | 1.5 h | 2 h | 3 h | 4 h | 6 h | 8 h | 10 h
iv | 7.87 | 5.05 | 2.53 | 1.51 | 0.956 | 0.636 | 0.202 | 0.0693 | 0.078 | 0.0225
oral | 1.22 | 0.488 | 0.248 | 0.189 | 0.271 | 0.16 | 0.0528 | 0.0194 | – | –

CN(C)CCCN1c2ccccc2CCc2ccccc21 [Imipramine]
concentration in plasma [µg/mL], rat [1], dosed: Imipramine
Conditions | 0.1287 h | 0.25 h | 0.5 h | 1 h | 2 h | 4 h | 8 h | 16 h | 24 h | 208 s
10.0000000000 mg/kg, iv, Wistar | 1.62 | – | 0.853 | 0.719 | 0.238 | 0.0463 | – | – | – | 2.34
50.0000000000 mg/kg, oral, Sprague-Dawley | – | 0.0991 | 0.0757 | 0.12 | 0.0739 | 0.0587 | 0.0386 | 0.0335 | 0.0283 | –

rat [2]
Conditions | concentration in brain [µg/g]
1 h | 8.5
2 h | 3.6
4 h | 1.61
5 min | 14.7
10 min | 15.1

O=C(O)C(F)(F)C(F)(F)C(F)(F)C(F)(F)C(F)(F)C(F)(F)C(F)(F)F [Pentadecafluorooctanoic acid]
concentration in plasma [µg/mL]
Conditions | rat [3] | rat [4] | rat [5] | rat [6] | rat [7] | rat [8]
0.25 h | – | 0.363 | – | 0.248 | – | 0.762
0.5 h | 0.15 | 0.54 | 0.245 | 0.379 | 0.188 | 0.608
1 h | 0.144 | 0.669 | 0.226 | 0.665 | 0.189 | 0.897
2 h | 0.138 | 0.957 | 0.236 | 0.764 | 0.196 | 0.95
4 h | 0.168 | 1.04 | 0.196 | 0.765 | 0.189 | 0.924
5 min | 0.208 | – | 0.31 | – | 0.257 | –
8 h | 0.148 | 1.1 | 0.207 | 0.955 | 0.171 | 1.21
10 min | 0.176 | – | 0.28 | – | 0.207 | –
12 h | 0.147 | 1.1 | 0.194 | 1.03 | 0.135 | 1.18
24 h | 0.141 | 1.04 | 0.195 | 1.01 | 0.168 | 1.13
48 h | 0.115 | 1.51 | 0.161 | 0.857 | 0.148 | 0.916
72 h | 0.098 | 0.663 | 0.153 | 0.563 | 0.122 | 0.855

rat [1], dosed: Pentadecafluorooctanoic acid, Sprague-Dawley
Conditions | concentration in plasma [µg/mL]
0.25 h, 1.0000000000 mg/kg, oral | 0.42
0.5 h, 0.2000000000 mg/kg, iv | 0.156
0.5 h, 1.0000000000 mg/kg, oral | 0.584
1 h, 0.2000000000 mg/kg, iv | 0.145
1 h, 1.0000000000 mg/kg, oral | 0.885
2 h, 0.2000000000 mg/kg, iv | 0.15
2 h, 1.0000000000 mg/kg, oral | 1.17
4 h, 0.2000000000 mg/kg, iv | 0.141
4 h, 1.0000000000 mg/kg, oral | 1.19
5 min, 0.2000000000 mg/kg, iv | 0.221
8 h, 0.2000000000 mg/kg, iv | 0.123
8 h, 1.0000000000 mg/kg, oral | 1.14
10 min, 0.2000000000 mg/kg, iv | 0.188
12 h, 0.2000000000 mg/kg, iv | 0.142
12 h, 1.0000000000 mg/kg, oral | 1.12
24 h, 0.2000000000 mg/kg, iv | 0.139
24 h, 1.0000000000 mg/kg, oral | 1.27
48 h, 0.2000000000 mg/kg, iv | 0.059
48 h, 1.0000000000 mg/kg, oral | 0.911
72 h, 0.2000000000 mg/kg, iv | 0.1
72 h, 1.0000000000 mg/kg, oral | 0.655
